Measurements reported in patent USRE47689E1, “Compounds for treating spinal muscular atrophy” (PTC Therapeutics, Inc., priority 2011, dated 2019).
Where two headings read alike, the source gives them in different places.

How the values were obtained:
[1] = tested on: SMN2 minigene (full length SMN2 minigene mRNA containing SMN2 exon 7); assay: SMN2 minigene mRNA splicing RT-qPCR assay in cultured cells; format: cell-based, human; settings: Homo sapiens, HEK293-H, read-out: EC1.5x for production of full length SMN2 mRNA
Procedure, shortened: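 Read-out: full-length (exon 7-included) SMN2 minigene mRNA by multiplex RT-qPCR with GAPDH, efficiency-corrected (1+E)^−Ct, GAPDH-normalized and divided by vehicle. Stably transfected HEK293H cells, 24 h compound exposure, duplicates per concentration. Value is EC1.5x, reported as star ranges.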

Smn protein = Smn protein assay in cultured cells (SMN HTRF); format: cell-based, human; settings: for EC1.5x (concentration giving 1.5-fold Smn protein increase): read-out: EC1.5x for Smn protein expression
Procedure, shortened: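 Lysates in RIPA with protease inhibitors are incubated overnight at room temperature with HTRF anti-SMN antibodies. EC1.5x is derived from fold increase in ΔF over vehicle.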

[2] = HEK293H cells stably transfected with SMN2-A minigene, 24 hours, 7-point concentration curve, 1.5-fold relative to vehicle-treated cells
[3] = SMA patient fibroblast cells, 48 hours, 7-point concentration data, fold increase relative to vehicle control (SMN HTRF)
[4] = SMA Type 1 patient fibroblast cells (GM03813), 48 hours, 7-point concentration curve, SMN HTRF, concentration producing 1.5 times Smn protein vs DMSO vehicle control

| SMILES | EC (1.5-fold) [1, 2] [µM] | maximum fold (Fold) increase of Smn protein (Smn protein; [3]) | melting point [°C] | EC1.5x (concentration giving 1.5-fold Smn protein increase) (Smn protein; [4]) [nM] | EC (1.5-fold) ([1]; 24 h) [µM] | maximum fold (Fold) increase of Smn protein (Smn protein) | EC1.5x (concentration giving 1.5-fold Smn protein increase) (Smn protein) [nM] |
| --- | --- | --- | --- | --- | --- | --- | --- |
| Cc1cn2cc(-c3cc4ccc(N5CC6CC5CN6)cc4oc3=O)cc2c(C)n1 (stereo not shown) [Compound 783, 7-(2,5-diazabicyclo[2.2.1]hept-2-yl)-3-(1,3-dimethylpyrrolo[1,2-a]pyrazin-7-yl)-2H-chromen-2-one] | < 0.1 | *** (fold increase between >1.35 and ≤1.5) | 236 to 239 | – | – | – | – |
| Cc1cn2cc(-c3cc4ccc(N5CCC(CN)CC5)cc4oc3=O)cc2c(C)n1 [Compound 784, 7-[4-(aminomethyl)piperidin-1-yl]-3-(1,3-dimethylpyrrolo[1,2-a]pyrazin-7-yl)-2H-chromen-2-one] | 1 to 3 | ** (fold increase between >1.2 and ≤1.35) | 256 to 259 | – | – | – | – |
| Cc1cn2cc(-c3cc4ccc(N5C[C@H]6CCCN(CCO)[C@H]6C5)cc4oc3=O)nc2c(C)n1 [Compound 785, 3-(6,8-dimethylimidazo[1,2-a]pyrazin-2-yl)-7-[(4aR,7aR)-1-(2-hydroxyethyl)octahydro-6H-pyrrolo[3,4-b]pyridin-6-yl]-2H-chromen-2-one] | < 0.1 | **** (fold increase between >1.5 and ≤1.65) | 207 to 217 | 1000 to 3000 | – | – | – |
| CCN1CCC[C@@H]2CN(c3ccc4cc(-c5cn6cc(C)nc(C)c6n5)c(=O)oc4c3)C[C@@H]21 [Compound 786, 3-(6,8-dimethylimidazo[1,2-a]pyrazin-2-yl)-7-[(4aR,7aR)-1-ethyloctahydro-6H-pyrrolo[3,4-b]pyridin-6-yl]-2H-chromen-2-one] | < 0.1 | **** (fold increase between >1.5 and ≤1.65) | 215 to 221 | < 300 | – | – | – |
| CCN1CCN(c2ccc3cc(-c4cc5cc(C)nc(C)c5o4)c(=O)oc3c2)CC1 [Compound 788, 3-(5,7-dimethylfuro[2,3-c]pyridin-2-yl)-7-(4-ethylpiperazin-1-yl)-2H-chromen-2-one] | < 0.1 | **** (fold increase between >1.5 and ≤1.65) | 196 to 198 | < 300 | – | – | – |
| Cc1cc2cc(-c3cc4ccc(N5CCN(C(C)C)CC5)cc4oc3=O)oc2c(C)n1 [Compound 789, 3-(5,7-dimethylfuro[2,3-c]pyridin-2-yl)-7-[4-(propan-2-yl)piperazin-1-yl]-2H-chromen-2-one] | < 0.1 | *** (fold increase between >1.35 and ≤1.5) | 186 to 189 | – | – | – | – |
| CCN1C[C@@H]2C[C@H]1CN2c1ccc2cc(-c3cn4cc(Cl)nc(C)c4n3)c(=O)oc2c1 [Compound 791, 3-(6-chloro-8-methylimidazo[1,2-a]pyrazin-2-yl)-7-[(1S,4S)-5-ethyl-2,5-diazabicyclo[2.2.1]hept-2-yl]-2H-chromen-2-one] | < 0.1 | *** (fold increase between >1.35 and ≤1.5) | 135 to 138 | 1000 to 3000 | – | – | – |
| Cc1cn2cc(-c3cc4ccc(N5CCN(C(C)C)CC5)cc4oc3=O)nc2c(C)n1 [Compound 792, 3-(6,8-dimethylimidazo[1,2-a]pyrazin-2-yl)-7-[4-(propan-2-yl)piperazin-1-yl]-2H-chromen-2-one] | < 0.1 | **** (fold increase between >1.5 and ≤1.65) | 240 to 242 | < 300 | – | – | – |
| CCN1C[C@@H]2C[C@H]1CN2c1ccc2cc(-c3cn4cc(C)nc(C)c4n3)c(=O)oc2c1 [Compound 793, 3-(6,8-dimethylimidazo[1,2-a]pyrazin-2-yl)-7-[(1S,4S)-5-ethyl-2,5-diazabicyclo[2.2.1]hept-2-yl]-2H-chromen-2-one] | < 0.1 | **** (fold increase between >1.5 and ≤1.65) | 133 to 135 | < 300 | – | – | – |
| Cc1cn2cc(-c3cc4ccc(N5C[C@@H]6CCCN[C@@H]6C5)cc4oc3=O)nc2c(C)n1 [Compound 794, 3-(6,8-dimethylimidazo[1,2-a]pyrazin-2-yl)-7-[(4aS,7aS)-octahydro-6H-pyrrolo[3,4-b]pyridin-6-yl]-2H-chromen-2-one] | < 0.1 | **** (fold increase between >1.5 and ≤1.65) | 246 to 253 | < 300 | – | – | – |
| Cc1cn2cc(-c3cc4ccc(N5C[C@@H]6CCCN(CCO)[C@@H]6C5)cc4oc3=O)nc2c(C)n1 [Compound 796, 3-(6,8-dimethylimidazo[1,2-a]pyrazin-2-yl)-7-[(4aS,7aS)-1-(2-hydroxyethyl)octahydro-6H-pyrrolo[3,4-b]pyridin-6-yl]-2H-chromen-2-one] | < 0.1 | **** (fold increase between >1.5 and ≤1.65) | 200 to 210 | 300 to 1000 | – | – | – |
| COCCN1CCN(c2ccc3cc(-c4cc5cc(C)nc(C)c5o4)c(=O)oc3c2)CC1 [Compound 799, 3-(5,7-dimethylfuro[2,3-c]pyridin-2-yl)-7-[4-(2-methoxyethyl)piperazin-1-yl]-2H-chromen-2-one] | < 0.1 | **** (fold increase between >1.5 and ≤1.65) | 235 to 237 | < 300 | – | – | – |
| Cc1cn2cc(-c3cc4ccc(C5=CCN(CCO)CC5)cc4oc3=O)nc2c(C)n1 [Compound 801, 3-(6,8-dimethylimidazo[1,2-a]pyrazin-2-yl)-7-[1-(2-hydroxyethyl)-1,2,3,6-tetrahydropyridin-4-yl]-2H-chromen-2-one] | – | – | 172 to 214 | – | < 0.1 | **** (key: *: maximum fold increase of ≤1.2; **: fold increase between >1.2 and ≤1.35; ***: fold increase between >1.35 and ≤1.5; ****: fold increase between >1.5 and ≤1.65; *****: fold increase >1.65) | < 300 |
| Cc1cn2cc(-c3cc4ccc(C5=CCN(C(C)C)CC5)cc4oc3=O)nc2c(C)n1 [Compound 802, 3-(6,8-dimethylimidazo[1,2-a]pyrazin-2-yl)-7-[1-(propan-2-yl)-1,2,3,6-tetrahydropyridin-4-yl]-2H-chromen-2-one] | – | – | 207 to 217 | – | < 0.1 | **** (key: *: maximum fold increase of ≤1.2; **: fold increase between >1.2 and ≤1.35; ***: fold increase between >1.35 and ≤1.5; ****: fold increase between >1.5 and ≤1.65; *****: fold increase >1.65) | < 300 |
| CCN1CCC[C@H]2CN(c3ccc4cc(-c5cn6cc(C)nc(C)c6n5)c(=O)oc4c3)C[C@H]21 [Compound 803, 3-(6,8-dimethylimidazo[1,2-a]pyrazin-2-yl)-7-[(4aS,7aS)-1-ethyloctahydro-6H-pyrrolo[3,4-b]pyridin-6-yl]-2H-chromen-2-one] | < 0.1 | *** (fold increase between >1.35 and ≤1.5) | 217 to 221 | – | – | – | – |
| Cc1cc2cc(-c3cc4ccc(N5CCN[C@@H](C)C5)cc4oc3=O)oc2c(C)n1 [Compound 804, 3-(5,7-dimethylfuro[2,3-c]pyridin-2-yl)-7-[(3S)-3-methylpiperazin-1-yl]-2H-chromen-2-one] | < 0.1 | ***** (fold increase >1.65) | 253 to 257 | < 300 | – | – | – |
| Cc1cc2cc(-c3cc4ccc(N5CCN(C)[C@@H](C)C5)cc4oc3=O)oc2c(C)n1 [Compound 805, 3-(5,7-dimethylfuro[2,3-c]pyridin-2-yl)-7-[(3S)-3,4-dimethylpiperazin-1-yl]-2H-chromen-2-one] | < 0.1 | ***** (fold increase >1.65) | 200 to 205 | < 300 | – | – | – |
| Cc1cc2cc(-c3cc4ccc(N5CCN[C@H](C)C5)cc4oc3=O)oc2c(C)n1 [Compound 806, 3-(5,7-dimethylfuro[2,3-c]pyridin-2-yl)-7-[(3R)-3-methylpiperazin-1-yl]-2H-chromen-2-one] | < 0.1 | ***** (fold increase >1.65) | 251 to 256 | < 300 | – | – | – |
| Cc1cc2cc(-c3cc4ccc(N5CCN(C)[C@H](C)C5)cc4oc3=O)oc2c(C)n1 [Compound 807, 3-(5,7-dimethylfuro[2,3-c]pyridin-2-yl)-7-[(3R)-3,4-dimethylpiperazin-1-yl]-2H-chromen-2-one] | < 0.1 | ***** (fold increase >1.65) | 199 to 204 | < 300 | – | – | – |
| Cc1cn2cc(-c3cc4ccc(N5CCN(C6CC6)CC5)cc4oc3=O)nc2cn1 [Compound 811, 7-(4-cyclopropylpiperazin-1-yl)-3-(6-methylimidazo[1,2-a]pyrazin-2-yl)-2H-chromen-2-one] | 0.3 to 1 | **** (fold increase between >1.5 and ≤1.65) | 287 to 289 | 300 to 1000 | – | – | – |
